O=Cc1ccc(O)cc1
Details | solubility (mole fraction)
in 1,4-dioxane, 283.15 K | 0.0467
in 1,4-dioxane, 285.65 K | 0.0555
in 1,4-dioxane, 288.15 K | 0.0655
in 1,4-dioxane, 290.65 K | 0.0772
in 1,4-dioxane, 293.15 K | 0.0905
in 1,4-dioxane, 295.65 K | 0.106
in 1,4-dioxane, 298.15 K | 0.123
in 1,4-dioxane, 300.65 K | 0.141
in 1,4-dioxane, 303.15 K | 0.163
in 1,4-dioxane, 305.65 K | 0.186
in 1,4-dioxane, 308.15 K | 0.211
in 1,4-dioxane, 310.65 K | 0.238
in 1,4-dioxane, 313.15 K | 0.267
in 1,4-dioxane, 315.65 K | 0.299
in 1,4-dioxane, 318.15 K | 0.334
in 2-butanone, 278.15 K | 0.0731
in 2-butanone, 280.65 K | 0.0822
in 2-butanone, 283.15 K | 0.0911
in 2-butanone, 285.65 K | 0.101
in 2-butanone, 288.15 K | 0.111
in 2-butanone, 290.65 K | 0.123
in 2-butanone, 293.15 K | 0.135
in 2-butanone, 295.65 K | 0.148
in 2-butanone, 298.15 K | 0.163
in 2-butanone, 300.65 K | 0.177
in 2-butanone, 303.15 K | 0.194
in 2-butanone, 305.65 K | 0.21
in 2-butanone, 308.15 K | 0.229
in 2-butanone, 310.65 K | 0.247
in 2-butanone, 313.15 K | 0.267
in 2-butanone, 315.65 K | 0.288
in 2-butanone, 318.15 K | 0.309
in DMF, 278.15 K | 0.0741
in DMF, 280.65 K | 0.0863
in DMF, 283.15 K | 0.0997
in DMF, 285.65 K | 0.114
in DMF, 288.15 K | 0.131
in DMF, 290.65 K | 0.148
in DMF, 293.15 K | 0.168
in DMF, 295.65 K | 0.191
in DMF, 298.15 K | 0.214
in DMF, 300.65 K | 0.241
in DMF, 303.15 K | 0.27
in DMF, 305.65 K | 0.302
in DMF, 308.15 K | 0.338
in DMF, 310.65 K | 0.376
in DMF, 313.15 K | 0.416
in DMF, 315.65 K | 0.458
in DMF, 318.15 K | 0.504
in acetone, 278.15 K | 0.0713
in acetone, 280.65 K | 0.0796
in acetone, 283.15 K | 0.0889
in acetone, 285.65 K | 0.0986
in acetone, 288.15 K | 0.109
in acetone, 290.65 K | 0.12
in acetone, 293.15 K | 0.133
in acetone, 295.65 K | 0.145
in acetone, 298.15 K | 0.159
in acetone, 300.65 K | 0.174
in acetone, 303.15 K | 0.189
in acetone, 305.65 K | 0.205
in acetone, 308.15 K | 0.222
in acetone, 310.65 K | 0.24
in acetone, 313.15 K | 0.259
in acetone, 315.65 K | 0.279
in acetone, 318.15 K | 0.299
in acetonitrile, 278.15 K | 0.0318
in acetonitrile, 280.65 K | 0.036
in acetonitrile, 283.15 K | 0.0405
in acetonitrile, 285.65 K | 0.0454
in acetonitrile, 288.15 K | 0.0508
in acetonitrile, 290.65 K | 0.0567
in acetonitrile, 293.15 K | 0.0632
in acetonitrile, 295.65 K | 0.0704
in acetonitrile, 298.15 K | 0.0782
in acetonitrile, 300.65 K | 0.0867
in acetonitrile, 303.15 K | 0.0957
in acetonitrile, 305.65 K | 0.106
in acetonitrile, 308.15 K | 0.116
in acetonitrile, 310.65 K | 0.128
in acetonitrile, 313.15 K | 0.14
in acetonitrile, 315.65 K | 0.154
in acetonitrile, 318.15 K | 0.168
in ethanol, 278.15 K | 0.043
in ethanol, 280.65 K | 0.0493
in ethanol, 283.15 K | 0.0563
in ethanol, 285.65 K | 0.0639
in ethanol, 288.15 K | 0.0725
in ethanol, 290.65 K | 0.0815
in ethanol, 293.15 K | 0.0914
in ethanol, 295.65 K | 0.102
in ethanol, 298.15 K | 0.115
in ethanol, 300.65 K | 0.128
in ethanol, 303.15 K | 0.142
in ethanol, 305.65 K | 0.156
in ethanol, 308.15 K | 0.173
in ethanol, 310.65 K | 0.191
in ethanol, 313.15 K | 0.209
in ethanol, 315.65 K | 0.227
in ethanol, 318.15 K | 0.247
in ethyl acetate, 278.15 K | 0.0708
in ethyl acetate, 280.65 K | 0.0787
in ethyl acetate, 283.15 K | 0.0877
in ethyl acetate, 285.65 K | 0.0968
in ethyl acetate, 288.15 K | 0.106
in ethyl acetate, 290.65 K | 0.117
in ethyl acetate, 293.15 K | 0.129
in ethyl acetate, 295.65 K | 0.141
in ethyl acetate, 298.15 K | 0.155
in ethyl acetate, 300.65 K | 0.169
in ethyl acetate, 303.15 K | 0.184
in ethyl acetate, 305.65 K | 0.2
in ethyl acetate, 308.15 K | 0.216
in ethyl acetate, 310.65 K | 0.234
in ethyl acetate, 313.15 K | 0.251
in ethyl acetate, 315.65 K | 0.272
in ethyl acetate, 318.15 K | 0.293
in isopropanol, 278.15 K | 0.0535
in isopropanol, 280.65 K | 0.0607
in isopropanol, 283.15 K | 0.0683
in isopropanol, 285.65 K | 0.0773
in isopropanol, 288.15 K | 0.0868
in isopropanol, 290.65 K | 0.0972
in isopropanol, 293.15 K | 0.109
in isopropanol, 295.65 K | 0.121
in isopropanol, 298.15 K | 0.134
in isopropanol, 300.65 K | 0.148
in isopropanol, 303.15 K | 0.164
in isopropanol, 305.65 K | 0.18
in isopropanol, 308.15 K | 0.198
in isopropanol, 310.65 K | 0.218
in isopropanol, 313.15 K | 0.238
in isopropanol, 315.65 K | 0.259
in isopropanol, 318.15 K | 0.281
in methanol, 278.15 K | 0.0342
in methanol, 280.65 K | 0.0392
in methanol, 283.15 K | 0.0449
in methanol, 285.65 K | 0.0516
in methanol, 288.15 K | 0.0587
in methanol, 290.65 K | 0.0668
in methanol, 293.15 K | 0.076
in methanol, 295.65 K | 0.0858
in methanol, 298.15 K | 0.0969
in methanol, 300.65 K | 0.109
in methanol, 303.15 K | 0.121
in methanol, 305.65 K | 0.136
in methanol, 308.15 K | 0.151
in methanol, 310.65 K | 0.168
in methanol, 313.15 K | 0.186
in methanol, 315.65 K | 0.205
in methanol, 318.15 K | 0.224
in n-butanol, 278.15 K | 0.0545
in n-butanol, 280.65 K | 0.0615
in n-butanol, 283.15 K | 0.0692
in n-butanol, 285.65 K | 0.0775
in n-butanol, 288.15 K | 0.0864
in n-butanol, 290.65 K | 0.0963
in n-butanol, 293.15 K | 0.107
in n-butanol, 295.65 K | 0.118
in n-butanol, 298.15 K | 0.13
in n-butanol, 300.65 K | 0.143
in n-butanol, 303.15 K | 0.157
in n-butanol, 305.65 K | 0.171
in n-butanol, 308.15 K | 0.187
in n-butanol, 310.65 K | 0.203
in n-butanol, 313.15 K | 0.22
in n-butanol, 315.65 K | 0.239
in n-butanol, 318.15 K | 0.259
in n-propanol, 278.15 K | 0.0532
in n-propanol, 280.65 K | 0.0597
in n-propanol, 283.15 K | 0.0669
in n-propanol, 285.65 K | 0.0751
in n-propanol, 288.15 K | 0.0836
in n-propanol, 290.65 K | 0.093
in n-propanol, 293.15 K | 0.103
in n-propanol, 295.65 K | 0.114
in n-propanol, 298.15 K | 0.125
in n-propanol, 300.65 K | 0.138
in n-propanol, 303.15 K | 0.151
in n-propanol, 305.65 K | 0.165
in n-propanol, 308.15 K | 0.18
in n-propanol, 310.65 K | 0.196
in n-propanol, 313.15 K | 0.213
in n-propanol, 315.65 K | 0.23
in n-propanol, 318.15 K | 0.249
in toluene, 278.15 K | 0.000979
in toluene, 280.65 K | 0.00109
in toluene, 283.15 K | 0.00119
in toluene, 285.65 K | 0.00133
in toluene, 288.15 K | 0.00146
in toluene, 290.65 K | 0.00162
in toluene, 293.15 K | 0.00178
in toluene, 295.65 K | 0.00197
in toluene, 298.15 K | 0.00217
in toluene, 300.65 K | 0.00236
in toluene, 303.15 K | 0.00259
in toluene, 305.65 K | 0.00283
in toluene, 308.15 K | 0.00309
in toluene, 310.65 K | 0.0034
in toluene, 313.15 K | 0.00367
in toluene, 315.65 K | 0.00399
in toluene, 318.15 K | 0.00435
